System: larvae of the mustard beetle (Phaedon cochleariae)
Assay: Phaedon Larvae Test
Format: in vivo
Conditions: cabbage leaves (Brassica oleracea) dipped, concentration of active compound 1000 ppm
Method: Phaedon Larvae Test Solvent: 30 parts by weight of acetone Emulsifier: 1 part by weight of alkylaryl polyglycol ether To produce a suitable preparation of active compound, 1 part by weight of active compound is mixed with the stated amounts of solvent and emulsifier, and the concentrate is diluted with emulsifier-containing water to the desired concentration. Cabbage leaves (Brassica oleracea) are treated by being dipped into the preparation of active compound of the desired concentration and are populated with larvae of the mustard beetle (Phaedon cochleariae) while the leaves are still moist. After the desired period of time, the kill in % is determined. 100% means that all beetle larvae have been killed; 0% means that none of the beetle larvae have been killed.

Row | SMILES | kill rate [%]
1 | COC(=O)C(=NOCF)c1ccccc1COc1ccn(-c2ccc(Cl)cc2)n1 [Example 1, methyl 2-[2-({[1-(4-chlorophenyl)-1H-pyrazol-3-yl]oxy}methyl)phenyl]-2-[(fluoromethoxy)imino]acetate] | 100

System: Erysiphe graminis f.sp. hordei
Assay: Erysiphe Test (barley)/protective
Format: in vivo
Conditions: protective, application rate 250 g/ha, evaluation 7 days after inoculation
Method: Erysiphe Test (barley)/protective Solvent: 25 parts by weight of N,N-dimethylacetamide Emulsifier: 0.6 part by weight of alkylaryl polyglycol ether To produce a suitable preparation of active compound, 1 part by weight of active compound is mixed with the stated amounts of solvent and emulsifier, and the concentrate is diluted with water to the desired concentration. To test for protective activity, young plants are sprayed with the preparation of active compound at the stated application rate. After the spray coating has dried on, the plants are dusted with spores of Erysiphe graminis f.sp. hordei. The plants are placed in a greenhouse at a temperature of about 20° C. and a relative atmospheric humidity of about 80% to promote the development of mildew pustules.

Row | SMILES | efficacy [%]
2 | CNC(=O)C(=NOCF)c1ccccc1COc1ccn(-c2ccc(Cl)cc2)n1 [Example 2, 2-[2-({[1-(4-chlorophenyl)-1H-pyrazol-3-yl]oxy}methyl)phenyl]-2-[(fluoromethoxy)imino]-N-methylacetamide] | ≥ 98

System: Puccinia recondita
Assay: Puccinia Test (wheat)/protective
Format: in vivo
Conditions: protective, application rate 250 g/ha, evaluation 10 days after inoculation
Method: Puccinia Test (wheat)/protective Solvent: 25 parts by weight of N,N-dimethylacetamide Emulsifier: 0.6 part by weight of alkylaryl polyglycol ether To produce a suitable preparation of active compound, 1 part by weight of active compound is mixed with the stated amounts of solvent and emulsifier, and the concentrate is diluted with water to the desired concentration. To test for protective activity, young plants are sprayed with the preparation of active compound at the stated application rate. After the spray coating has dried on, the plants are sprayed with a conidia suspension of Puccinia recondita. The plants remain in an incubation cabin at 20° C. and 100% relative atmospheric humidity for 48 hours. The plants are then placed in a greenhouse at a temperature of about 20° C. and a relative atmospheric humidity of 80% to promote the development of rust pustules.

Row | SMILES | efficacy [%]
3 | COC(=O)C(=NOCF)c1ccccc1COc1ccn(-c2ccc(Cl)cc2)n1 [Example 1, methyl 2-[2-({[1-(4-chlorophenyl)-1H-pyrazol-3-yl]oxy}methyl)phenyl]-2-[(fluoromethoxy)imino]acetate] | ≥ 98

System: green peach aphid (Myzus persicae)
Assay: Myzus Test
Format: in vivo
Conditions: broad bean seedlings (Vicia faba) dipped, concentration of active compound 1000 ppm
Method: Myzus Test Solvent: 30 parts by weight of acetone Emulsifier: 1 part by weight of alkylaryl polyglycol ether To produce a suitable preparation of active compound, 1 part by weight of active compound is mixed with the stated amounts of solvent and emulsifier, […], and the concentrate is diluted with emulsifier-containing water to the desired concentrations. Broad bean seedlings (Vicia faba) infested by the green peach aphid (Myzus persicae) are dipped into a preparation of active compound of the desired concentration and placed in a dish made of plastic. After the desired period of time, the kill in % is determined. 100% means that all animals have been killed; 0% means that none of the animals have been killed.

Row | SMILES | kill rate [%]
4 | COC(=O)C(=NOCF)c1ccccc1COc1ccn(-c2ccc(Cl)cc2)n1 [Example 1, methyl 2-[2-({[1-(4-chlorophenyl)-1H-pyrazol-3-yl]oxy}methyl)phenyl]-2-[(fluoromethoxy)imino]acetate] | 95

System: Puccinia recondita
Assay: Puccinia Test (wheat)/curative
Format: in vivo
Conditions: curative, application rate 250 g/ha, evaluation 10 days after inoculation
Method: Puccinia Test (wheat)/curative Solvent: 25 parts by weight of N,N-dimethylacetamide Emulsifier: 0.6 part by weight of alkylaryl polyglycol ether To produce a suitable preparation of active compound, 1 part by weight of active compound is mixed with the stated amounts of solvent and emulsifier, and the concentrate is diluted with water to the desired concentration. To test for curative activity, young plants are sprayed with a conidia suspension of Puccinia recondita. The plants remain in an incubation cabin at 20° C. and 100% relative atmospheric humidity for 48 hours. The plants are then sprayed with the preparation of active compound at the stated application rate. The plants are placed in a greenhouse at a temperature of about 20° C. and a relative atmospheric humidity of about 80% to promote the development of rust pustules.

Row | SMILES | efficacy [%]
5 | CNC(=O)C(=NOCF)c1ccccc1COc1ccn(-c2ccc(Cl)cc2)n1 [Example 2, 2-[2-({[1-(4-chlorophenyl)-1H-pyrazol-3-yl]oxy}methyl)phenyl]-2-[(fluoromethoxy)imino]-N-methylacetamide] | ≥ 98

System: not listed separately
Assay: logP determination by HPLC (EEC Directive 79/831 Annex V.A8)
Format: physicochemical
Conditions: not given
Method: The logP values were determined in accordance with EEC Directive 79/831 Annex V.A8 by HPLC (gradient method, acetonitrile/0.1% aqueous phosphoric acid).

Row | chromatographic logP | SMILES
6 | 3.86 | COC(=O)C(=NOCF)c1ccccc1COc1ccn(-c2ccc(Cl)cc2)n1 [Example 1, methyl 2-[2-({[1-(4-chlorophenyl)-1H-pyrazol-3-yl]oxy}methyl)phenyl]-2-[(fluoromethoxy)imino]acetate]
7 | 3.3 | CNC(=O)C(=NOCF)c1ccccc1COc1ccn(-c2ccc(Cl)cc2)n1 [Example 2, 2-[2-({[1-(4-chlorophenyl)-1H-pyrazol-3-yl]oxy}methyl)phenyl]-2-[(fluoromethoxy)imino]-N-methylacetamide]

Same assay, conditions: HPLC, gradient method, acetonitrile/0.1% aqueous phosphoric acid

Row | SMILES | logP
8 | CNC(=O)C(=NOCF)c1ccccc1OCc1ccn(-c2cc(Cl)cc(Cl)c2)n1 [Example 7] | 3.93
9 | CNC(=O)C(=NOCF)c1ccccc1OCc1ccn(-c2cccc(Cl)c2)n1 [Example 43] | 3.3
10 | COC(=O)C(=NOCF)c1ccccc1OCc1ccn(-c2cccc(Cl)c2Cl)n1 [Example 27] | 3.9
11 | CNC(=O)C(=NOCF)c1ccccc1OCc1ccn(-c2ccccc2Cl)n1 [Example 22] | 2.96
12 | CNC(=O)C(=NOCF)c1ccccc1OCc1ccn(-c2cccc(C)c2)n1 [Example 31] | 3.15
13 | CNC(=O)C(=NOCF)c1ccccc1OCc1ccn(-c2ccccc2F)n1 [Example 32] | 2.93
14 | CNC(=O)C(=NOCF)c1ccccc1OCc1ccn(-c2cccc(Cl)c2Cl)n1 [Example 34] | 3.31
15 | COC(=O)C(=NOCF)c1ccccc1OCc1ccn(-c2ccc(Cl)cc2Cl)n1 [Example 11] | 4.09
16 | CNC(=O)C(=NOCF)c1ccccc1OCc1ccn(-c2cc(Cl)ccc2Cl)n1 [Example 36] | 3.43
17 | CNC(=O)C(=NOCF)c1ccccc1OCc1ccn(-c2ccc(F)cc2F)n1 [Example 33] | 3.02
18 | COC(=O)C(=NOCF)c1ccccc1OCc1ccn(-c2ccccc2F)n1 [Example 25] | 3.51
19 | CNC(=O)C(=NOCF)c1ccccc1OCc1ccn(-c2ccc(Cl)cc2Cl)n1 [Example 19] | 3.5
20 | COC(=O)C(=NOCF)c1ccccc1OCc1ccn(-c2ccccc2Cl)n1 [Example 8] | 3.53
21 | COC(=O)C(=NOCF)c1ccccc1OCc1ccn(-c2ccccc2Br)n1 [Example 12] | 3.54
22 | CNC(=O)C(=NOCF)c1ccccc1OCc1ccn(-c2ccccc2)n1 [Example 18] | 2.83
23 | CNC(=O)C(=NOCF)c1ccccc1OCc1ccn(-c2cccc(Br)c2)n1 [Example 5] | 3.39
24 | CNC(=O)C(=NOCF)c1ccccc1OCc1ccn(-c2ccc(C(C)C)cc2)n1 [Example 38] | 3.83
25 | COC(=O)C(=NOCF)c1ccccc1OCc1ccn(-c2cc(Cl)ccc2Cl)n1 [Example 29] | 4.5
26 | COC(=O)C(=NOCF)c1ccccc1OCc1ccn(-c2cc(Cl)cc(Cl)c2)n1 [Example 15] | 4.52
27 | CNC(=O)C(=NOCF)c1ccccc1OCc1ccn(-c2ccc(C(C)(C)C)cc2)n1 [Example 23] | 4.04
28 | COC(=O)C(=NOCF)c1ccccc1OCc1ccn(-c2ccc(F)cc2F)n1 [Example 26] | 3.52
29 | CNC(=O)C(=NOCF)c1ccccc1OCc1ccn(-c2ccc(C#N)cc2)n1 [Example 42] | 2.64

Further lines, results first:

Row | logP | SMILES
30 | 3.47 | COC(=O)C(=NOCF)c1ccccc1OCc1ccn(-c2ccc(F)cc2)n1 [Example 17]
31 | 3.92 | COC(=O)C(=NOCF)c1ccccc1OCc1ccn(-c2ccc(C)c(C)c2)n1 [Example 28]
32 | 4.38 | COC(=O)C(=NOCF)c1ccccc1OCc1ccn(-c2ccc(C(C)C)cc2)n1 [Example 4]
33 | 4.63 | COC(=O)C(=NOCF)c1ccccc1OCc1ccn(-c2ccc(C(C)(C)C)cc2)n1 [Example 21]
34 | 3.4 | COC(=O)C(=NOCF)c1ccccc1OCc1ccn(-c2ccccc2)n1 [Example 14]
35 | 3.74 | COC(=O)C(=NOCF)c1ccccc1OCc1ccn(-c2ccc(C)cc2)n1 [Example 10]
36 | 2.91 | CNC(=O)C(=NOCF)c1ccccc1OCc1ccn(-c2ccc(F)cc2)n1 [Example 3]
37 | 3.18 | COC(=O)C(=NOCF)c1ccccc1OCc1ccn(-c2ccc(C#N)cc2)n1 [Example 9]
38 | 3.73 | COC(=O)C(=NOCF)c1ccccc1OCc1ccn(-c2cccc(C)c2)n1 [Example 30]
39 | 3.98 | COC(=O)C(=NOCF)c1ccccc1OCc1ccn(-c2ccc(Br)cc2)n1 [Example 13]
40 | 3.98 | COC(=O)C(=NOCF)c1ccccc1OCc1ccn(-c2cccc(Br)c2)n1 [Example 16]
41 | 3.14 | CNC(=O)C(=NOCF)c1ccccc1OCc1ccn(-c2ccc(C)cc2)n1 [Example 41]
42 | 3.4 | CNC(=O)C(=NOCF)c1ccccc1OCc1ccn(-c2ccc(Br)cc2)n1 [Example 6]
43 | 3.88 | COC(=O)C(=NOCF)c1ccccc1OCc1ccn(-c2cccc(Cl)c2)n1 [Example 37]

— patent US6589974B1, “Pyrazolyl benzyl ether derivatives containing a fluoromethoxyimino group and use thereof as pesticides” (Bayer Aktiengesellschaft, priority 1999, dated 2003)
